Test results from patent US20110162437A1, “Biomarker for Mitochondrial Toxicity Associated with Phospholipidosis” (priority 2006, published 2011).
Values joined by “and” are separate entries in the source; they are usually repeats but may differ in a detail not shown here. Equal entries are not always repeated.

Assays:
Male Wistar rats = assay: PAG measurement by 1H NMR in urine after single oral dose, ratio versus time-matched controls; format: in vivo, rat; settings: for PAG: urine, individual animals
Procedure: (§1) All animals received (human) care as specified by Swiss law and in accordance with the “Guide for the care and use of laboratory animals” published by the NIH. Male Wistar rats (5 animals/dose-group) were purchased from RCC (Füllingsdorf, Switzerland) and housed individually. Treated animals were dosed orally by gavage with several doses of test compounds (Table 1). Control animals received the same volume of vehicle as placebo. Necropsy was performed 48 (subgroup A) or 168 hours (subgroup B) after a single administration (=Day 1) and urine samples were collected in metabolism cages at 0 to 4° C. (automatically refrigerated by a Tecniplast sampling/cooling unit (RACK B940, Tecniplast, USA)) at the intervals given in the sampling schedule in Table 2 into labelled sample tubes containing 1 ml of an aqueous Na-azide (1%) solution. Before aliquoting, urine volumes were determined.
Urine samples were taken on day -7,-2,-1, 1, 2, 3, 4, 5, 6 and 7, whereby Day 1 was the Day of dosing.
Immediately after reaching the end of the sampling period, the volume was determined and the samples were centrifuged at 3000 u/min (500 g) for 10 minutes.
Aliquot: Approximately 2 ml was transferred in 1.8 ml cryvials, round bottom, freestanding, with screw caps and septum for NMR-spectroscopic examinations (Bruker Analytik GmbH, Rheinstetten, Germany, Bruker part No. 85372). The vials were stored at −80° C.
Urine samples were prepared and measured on a Bruker 500 MHz NMR instrument according to the COMET 1H-NMR protocol (Keun, H. C et al., (2002) Physiological variation and analytical reproducibility in metabonomic urinalysis. Chem. Res. Tox. 15, 1380-1386) and as described above. In total 467 urine samples were analyzed. After measurement, all data were processed by XWINMR 3.5.6 (Bruker Biospin AG, Fällanden). Representative spectra are depicted in FIG. 2. Phase correction and baseline correction were performed with NMRPROC 0.3 (T. Ebbels, H. Keun; Imperial College). Spectral data were binned using AMIX 2.6 (Bruker Biospin AG, Fällanden) following the COMET Data Processing & Pattern Recognition protocol (Keun, H. C., et al., (2002) Physiological variation and analytical reproducibility in metabonomic urinalysis. Chem. Res. Tox. 15, 1380-1386). QC check procedures (Dieterle F., Ross A., Schlotterbeck G., Senn H. (2006) Probabilistic Quotient Normalization as Robust Method to Account for Dilution of Complex Biological Mixtures. Application in 1H NMR Metabonomics. Anal. Chem. 78, 4281-4290) were applied on binned data to detect outliers. In total 7 outliers were detected and removed from further analysis. All data were mean-centered and normalized using the probabilistic quotient normalization (Dieterle F., Ross A., Schlotterbeck G., Senn H. (2006) Probabilistic Quotient Normalization as Robust Method to Account for Dilution of Complex Biological Mixtures. Application in 1H NMR Metabonomics. Anal. Chem. 78, 4281-4290.). All binned data were annotated and transferred to the ANT (ANT: Affymetrix NMR Toxicology Data System) database.
The exact PAG quantification was performed according to following procedure: • Baseline subtraction of spectra • Integration of PAG peaks ((=7.47 ppm, (=7.39 ppm, (=3.79 ppm, and (=3.7 ppm respectively) and Citrate region ((=2.66-2.74 ppm and 2.50-2.58 ppm). • Quotient normalization (Dieterle F., Ross A., Schlotterbeck G., Senn H. (2006) Probabilistic Quotient Normalization as Robust Method to Account for Dilution of Complex Biological Mixtures. Application in 1H NMR Metabonomics. Anal. Chem. 78, 4281-4290.) • Divide each of the PAG bins by its average (all spectra) to correct for different relaxation times and number of protons • Calculate median out of the PAG bins • Calculate ratio versus time-matched controls

basic pKa value = format: physicochemical
[1] = potential to induce phospholipidosis judged from amphiphilicity and basic pKa; settings: from reduced amphiphilicity and basic pKa
From the text: The structural difference between both molecules can be mainly characterized by the exchange of the piperazine against a morpholine moiety in compound 2.

lymphocytes = assay: Electron microscopic examination of buffy coat lymphocytes for lamellar bodies (determination of phospholipidosis); format: in vivo, rat; settings: for Result, PL (grade of severity of phospholipidosis) / lymphocytes %, pos. / lymphocytes positive (with lamellar bodies): individual rats
Procedure: as §1
Blood samples (as much as possible) were withdrawn from all animals at necropsy at about 48 hours after dosing (subgroup A) and about 168 hours after dosing (subgroup B)
The samples were collected from the abdominal aorta or by cardiac puncture under terminal anaesthesia (CO2). A total of at least 2 ml blood was required to gain buffy coat (buffy coat=leukocyte band) samples.
After fixation in 2.5% glutaraldehyde, the buffy coat samples from all animals were embedded in Epon. […] All thin sections were examined ultrastructurally. If possible, 200 lymphocytes per sample were examined for lamellar bodies. The results per sample include the total number of lymphocytes examined, the total number of positive lymphocytes (i.e. with lamellar bodies), the percentage of positive lymphocytes and a grading of severity of phospholipidosis (criteria see table 4)

[2] = rat, low-dosed animals (300 mg/kg)
[3] = 300 mg/kg/day, necropsy 168 hours after application
[4] = 300 mg/kg/day, necropsy 48 hours after application, 300 mg/kg/day
[5] = 300 mg/kg/day, necropsy 168 hours after application, 300 mg/kg/day
[6] = 1500 mg/kg/day, necropsy 48 hours after application, 1500 mg/kg/day
[7] = 1500 mg/kg/day, necropsy 168 hours after application, 1500 mg/kg/day

increase of mean PAG levels compared to time matched controls (Male Wistar rats; rat, high-dosed animals (1500 mg/kg)): 4 fold
mean PAG levels remaining elevated until the end of the study (Male Wistar rats; rat, high-dosed animals (1500 mg/kg), until 168 h): 3-4 fold
increase of mean PAG levels compared to time matched controls (factor) (Male Wistar rats; [2]): two
mean levels of PAG at time points later than 72 h (Male Wistar rats; [2]): fall below control samples
start of PAG elevation after dosing (Male Wistar rats; rat, single oral dose, both dose groups): 24 h
dose dependant change of PAG levels in urine (Male Wistar rats; rat, single oral dose, both dose groups, normalized to time matched controls): significant dose dependant elevation
pKa (basic pKa value): 7.67
Compound: Cc1ccccc1-c1cc(N2CCN(C)CC2)ncc1N(C)C(=O)C(C)(C)c1cc(C(F)(F)F)cc(C(F)(F)F)c1 [Compound 1, 2-(3,5-Bis-trifluoromethyl-phenyl)-N-methyl-N-[6-(4-methyl-piperazin-1-yl)-4-o-tolyl-pyridin-3-yl]-isobutyramide]
PAG (Male Wistar rats; High_Dose group, Time 0 (within 8 hours before treatment)): 0.3099 and 0.4951 and 0.2661 and 0.1961 and 0.1580 and 0.3419 and 0.1895 and 0.2711 and 0.3305 and 0.4159
PAG (Male Wistar rats; High_Dose group, Time 8 (within 8 hours after treatment)): 0.8523 and 0.4093 and 0.7986 and 0.5172 and 0.2995 and 0.4361 and 0.5473 and 0.4307 and 1.0174 and 0.3275
PAG (Male Wistar rats; High_Dose group, Time 24 (within 8 to 24 hours after treatment)): 1.7579 and 1.3035 and 1.4190 and 0.4001 and 0.8788 and 1.2898 and 1.4210 and 1.9488 and 1.6305 and 1.2496
PAG (Male Wistar rats; High_Dose group, Time −16 (1 day before treatment)): 0.7486 and 0.5615 and 0.6169 and 0.5637 and 0.4281 and 0.4828 and 0.2993 and 0.4535 and 0.5361 and 0.5442
PAG (Male Wistar rats; High_Dose group, Time −144 (7 days before treatment)): 0.7666 and 0.8823 and 1.0974 and 0.6021 and 1.2709 and 1.0355
PAG (Male Wistar rats; Low_Dose group, Time 0 (within 8 hours before treatment)): 0.3142 and 0.2440 and 0.3422 and 0.2530 and 0.3700 and 0.6319 and 0.3708 and 0.3307 and 0.2336
PAG (Male Wistar rats; Low_Dose group, Time 8 (within 8 hours after treatment)): 1.1423 and 0.5270 and 0.3918 and 0.5331 and 0.6815 and 0.2977 and 0.6756 and 0.7527 and 0.4111 and 0.3688
PAG (Male Wistar rats; Low_Dose group, Time 24 (within 8 to 24 hours after treatment)): 0.6300 and 0.8072 and 1.0165 and 0.7250 and 0.5035 and 0.6637
PAG (Male Wistar rats; Low_Dose group, Time 48 (2 days after treatment)): 0.7584 and 0.6368 and 0.9878 and 0.6461 and 1.0386 and 0.3452 and 0.5698 and 0.3492 and 0.6477
PAG (Male Wistar rats; Low_Dose group, Time −16 (1 day before treatment)): 0.2393 and 0.4349 and 0.5528 and 0.5649 and 0.8171 and 0.3201 and 0.5236 and 0.6045 and 0.4646 and 0.2537
PAG (Male Wistar rats; Low_Dose group, Time −144 (7 days before treatment)): 0.8210 and 1.1559 and 0.9260 and 0.7456 and 0.8081 and 0.6038 and 1.5903 and 1.1241 and 0.9275 and 0.8848
potential to induce phospholipidosis [1]: high potential
recovery of phospholipidosis 168 hours after application (lymphocytes; 300 mg/kg/day): partial or complete recovery
phospholipidosis severity (group assessment) (lymphocytes; 300 mg/kg/day, necropsied 48 hours after application): minimal to slight
incidence of affected lymphocytes (range over animals) (lymphocytes; 300 mg/kg/day, necropsied 48 hours after application, data from 3 animals): 5-12%
incidence of affected lymphocytes (range over animals) (lymphocytes; [3]): 0-1%
phospholipidosis severity (group assessment) (lymphocytes; [3]): minimal or not present
recovery of phospholipidosis within 168 hours after application (lymphocytes; 1500 mg/kg/day): no indications of recovery
lymphocytes affected (range) (lymphocytes; 1500 mg/kg/day, both time points (48 and 168 hours)): 15-31%
phospholipidosis severity (group assessment) (lymphocytes; 1500 mg/kg/day, necropsied 48 hours after application): moderate to marked
incidence of affected lymphocytes (range over animals) (lymphocytes; 1500 mg/kg/day, necropsied 48 hours after application, data from 4 animals): 15-31%
phospholipidosis severity (group assessment) (lymphocytes; 1500 mg/kg/day, sacrificed 168 hours after application): moderate to marked
incidence of affected lymphocytes (range over animals) (lymphocytes; 1500 mg/kg/day, sacrificed 168 hours after application, data from 4 animals): 21-31%
Result, PL (grade of severity of phospholipidosis) (lymphocytes; [4]): 1 (≦5%: minimal) and 2 (>5-15%: slight) (2×)
lymphocytes %, pos. (lymphocytes; [4]): 5% and 5.7% and 12.2%
lymphocytes positive (with lamellar bodies) (lymphocytes; [4]): 10 and 8 and 23
Result, PL (grade of severity of phospholipidosis) (lymphocytes; [5]): 1 (≦5%: minimal)
lymphocytes %, pos. (lymphocytes; [5]): 0% (2×) and 1.1% and 1% and 0.8%
lymphocytes positive (with lamellar bodies) (lymphocytes; [5]): 0 (2×) and 2 (2×) and 1
Result, PL (grade of severity of phospholipidosis) (lymphocytes; [6]): 3 (>15-25%: moderate) (2×) and 4 (>25: marked) (2×) and (2) (>5-15%: slight)
lymphocytes %, pos. (lymphocytes; [6]): 18.8% and 15.1% and 31% and (5.8) % and 25.7%
lymphocytes positive (with lamellar bodies) (lymphocytes; [6]): 36 and 19 and 61 and (3) and 29
Result, PL (grade of severity of phospholipidosis) (lymphocytes; [7]): 4 (>25: marked) (2×) and 3 (>15-25%: moderate) (2×)
lymphocytes %, pos. (lymphocytes; [7]): 31% and 21% and 28.2% and 24%
lymphocytes positive (with lamellar bodies) (lymphocytes; [7]): 62 and 42 and 29 and 25
lymphocytes containing cytoplasmic lamellar bodies (finding in words) (lymphocytes; rats, single oral dose, necropsy 48 or 168 hours after application): seen and occurred dose dependently
